From patent publication US9289412B2, “Role of limonoid compounds as neuroprotective agents” (The Johns Hopkins University, priority 2006, dated 2016)

Columns and labels:
[1] = system: mixed hippocampal cell cultures (NMDA excitotoxicity); experiment: NMDA excitotoxicity, MTT viability, mixed hippocampal cultures; type: cell-based, rat; details: NMDA 100 μM
Experimental: (§1) FIG. 8 is a set of bar graphs showing the results of an MTT viability assay of mixed hippocampal cell cultures in which the effect of (A) NMDA (100 μM) or (B) 6-OHDA (100 μM) is tested alone or in the presence of a range of concentrations of Limonin (0.1-10 μM).
(§2) We also tested the ability of Limonin to protect against N-methyl-D-Aspartic Acid (NMDA) excitotoxicity, and 6-Hydroxydopamine (6-0HDA), a dopaminergic neurotoxin.

[2] = system: human fetal neuronal cultures; experiment: 6-OHDA toxicity, MTT viability, human fetal neuron cultures; type: cell-based; details: 6-OHDA 100 μM; Limonin 0.1-10 μM
Experimental: (§3) FIG. 9 is a set of bar graphs showing the results of an MTT viability assay of human fetal neuron cultures in which the effect of (A) 3-NP (3 mM) or (B) 6-OHDA (100 μM) is tested alone or in the presence of a range of concentrations of Limonin (0.1-10 μM).
(§4) Finally, we sought to determine if the compounds tested in rat neuronal cultures would also be effective on cultured human fetal neurons.

[3] = system: mixed hippocampal cell cultures (6-OHDA neurotoxicity); experiment: 6-OHDA neurotoxicity, MTT viability, mixed hippocampal cultures; type: cell-based, rat; details: 6-OHDA 100 μM
Experimental: as §1, §2

[4] = system: human fetal neuronal cultures; experiment: 3-NP toxicity, MTT viability, human fetal neuron cultures; type: cell-based; details: 3-NP 3 mM; Limonin 0.1-10 μM
Experimental: as §3, §4

[5] = system: hippocampal cultures (HIV-1 Tat toxicity); experiment: HIV-1 Tat toxicity assay, MTT viability, mixed hippocampal cultures; type: cell-based, rat; details: Tat 500 nM; range of concentrations up to 10 μM
Source text: We sought to evaluate the protective efficacy of a number of modified terpenoid compounds against the against many different neurotoxins, ranging from the chemotoxic 6-OHDA, NMDA, 3-nitropropionic acid (3-NP), and viral proteins such as Tat and gp120. Thus, we established an in vitro neuroprotection assay using rat mixed hippocampal cultures, in which we evaluated the protective efficacy of neuroprotective compounds disclosed herein. The oxidative stressor 3-NP was used to elicit toxicity in the rat hippocampal cultures to mimic the oxidative damage, reactive oxygen species production and ensuing neurodegeneration resulting from HIV infection. Another measure of neurotoxicity which results from HIV infection was evaluated by exposure of the hippocampal cultures to HIV-1 Tat (Li et al (2005), Neurotox Res, 8(1-2): 119-134).
Rat mixed hippocamal neuronal cultures were generated from freshly dissected rat hippocampi (embryonic day 18) in neurobasal media containing 5% fetal bovine serum and 2% B27 supplement. The cells were plated into 96 well plates at a density of 4×10^5 cells/mL and routinely used on days 11-14 following culturing. Cell viability was assessed with MTT [3-(4,5-dimethylthiazol-2-yl)-2,5-diphenyltetrazolium bromide] assay. The MTT assay is based on the ability of a mitochondrial dehydrogenase enzyme from viable cells to cleave the tetrazolium rings of the pale yellow MTT and form dark blue formazan crystals. See Mosmann (1983), J Immunol Methods, 65(1-2):55-63. These crystals are largely impermeable to cell membranes, and thus accumulate within healthy cells. The resultant formazan precipitates are solubilized with DMSO and read on a multiwell scanning spectrophotometer (ELISA reader). The number of surviving cells is directly proportional to the level of the formazan product created.
Cultures were preincubated with GPI 1046 or Resveratrol for one hour prior to an 18 hour exposure to 3 mM 3-NP. […] The same neuroprotective compounds were evaluated for efficacy against HIV-1 Tat protein toxicity using the same 1 hour preincubation protocol.

CC1(C)O[C@H]2CC(=O)OC[C@]23[C@H]2CC[C@@]4(C)[C@H](c5ccoc5)OC(=O)[C@H]5O[C@]54[C@]2(C)C(=O)C[C@@H]13 [Limonin]
protection against NMDA at highest dose ([1]; Limonin 10 μM): complete protection | dose dependence of block of NMDA neurotoxicity (FIG. 8A) ([1]; Limonin 0.1-10 μM): dose-dependently blocked the neurotoxicity | protection of human fetal neuronal cultures against 6-OHDA (FIG. 9B) [2]: dose-dependently protected | protection against 6-OHDA at highest dose ([3]; Limonin 10 μM): complete protection | dose dependence of block of 6-OHDA neurotoxicity (FIG. 8B) ([3]; Limonin 0.1-10 μM): dose-dependently blocked the neurotoxicity | protection of human fetal neuronal cultures against 3-NP (FIG. 9A) [4]: dose-dependently protected | dose dependence of protection from HIV-1 Tat toxicity (FIG. 7) [5]: dose dependently protected
